Laboratory results reported in patent publication US20110112100A1, “Hepatitis C Virus Inhibitors” (priority 2009, published 2011).
Structures can show the parent of a compound that is named as a salt. Where two headings read alike, the source gives them in different places.

Experiments:
[1] = Plasma protein binding, Rapid Equilibrium Dialysis; format: in vitro ADME; conditions: human plasma proteins
Experimental: Plasma binding free fractions (fu) were determined using a proprietary validated Rapid Equilibrium Dialysis (RED) device (Thermofisher). The analyte was spiked to a concentration of 2 μM in pre-prepared male CD rat plasma and 220 μl aliquots (n=4) were loaded into a RED device. The samples were dialysed vs. 350 μl of dulbeccos phosphate buffered saline (dPBS) for 4 h at 37° C. in a CO2 incubator in order to reach equilibrium. After 4 hours, 45 μl buffer and 15 μl plasma aliquots were taken and added to a 200 μl 384-well polypropylene plate. Respective volumes of control buffer were added to the plasma or control plasma was added to the buffer samples to give an identical matrix between samples. The samples were then crashed in 120 μl of acetonitrile and analysed via LC-MS/MS.
For highly bound compounds in the potency assay, which includes 10% foetal calf serum, measured potencies may not reflect real intrinsic potency due to a significant degree of compound binding.

1a-H77 replicon cells = experiment: HCV 1a replicon inhibitory activity (Renilla luciferase); format: cell-based, hepatitis C virus; conditions: Hepatitis C virus, read-out: IC50 value (95% Confidence Intervals) pM Replicon 1A assay
Procedure, shortened: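 Replicon cells in DMEM + 10% FCS incubated 48 hours at 37° C., 5% CO2 with 1-in-3 serial dilutions of compound prepared in DMSO. Replication read as Renilla luciferase luminescence after lysis. EC50 taken from log concentration-response curves.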

1b (con1) replicon cells = experiment: HCV 1b replicon inhibitory activity (luciferase, Britelite Plus); format: cell-based, hepatitis C virus; conditions: Hepatitis C virus, read-out: IC50 value (95% Confidence Intervals) pM Replicon 1B assay
Procedure, shortened: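 1b (con1) luciferase replicon cells in DMEM + 10% FCS were exposed to 1-in-3 DMSO compound dilutions for 48 h at 37° C, 5% CO2. Luminescence was read 1-15 min after Britelite Plus addition; EC50 came from log concentration-response curves.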

[2] = Compound induced cytotoxicity in HCV replicon cell lines (WST-1 reagent); format: cell-based; conditions: human, 1b (con1) HCV replicon cells; WST-1, 48 hours; in 1 experiment
Experimental: Test compounds were solubilised to 4 mM in 100% DMSO. Dilutions were made to the desired starting concentration in 100% DMSO and then 1 in 3 dilutions made, again in 100% DMSO. 0.5 μl of each sample was added to 384-well assay plates. White Lumitrac (Greiner) plates were used for the 1a and 1b replicon assays and black, clear bottomed (Greiner) plates were used for the WST-1 cytotoxity assay.
1b (con1) replicon cells were resuspended to a concentration of 1.4×10^5 cells/ml by addition of pre-warmed medium (DMEM+10% FCS). 50 μl of this suspension was added to each well of a 384-well assay plate (Black, clear bottomed, Greiner) already containing 0.5 μl of test compound.
All plates were covered with gas permeable seals and incubated at 37° C., 5% CO2 for 48 hours. After 48 hours, 5 μl WST-1 reagent (Roche, 11 644 807 001) was added to each well and the plate returned to the incubator for 3 hours. After this incubation period absorbance was read at 450 nm on an EnVision (Perkin Elmer) plate reader. The half maximal cytotoxic concentration (CC50) values were calculated for each compound by constructing log concentration-response curves.
All of the exemplified compounds have been screened in a cell proliferation assay (WST-1). A majority have […] in at least 2 independent experiments, the exceptions being the compounds of examples 1, 10, 12, 23, 25, 37, 47, 48, 49, 52, 56, 57, 58, 60, 67, 68, 69, 70, 71, 72, 73, 74, 79, 81 and 84 which have CC50 values>2 μM in 1 experiment, and example 20 where the CC50 is reported as >10 nM (in this instance the top concentration tested in the assay was 10 nM).

[3] = geometric mean, 95% confidence intervals in parentheses, 48 hours, medium with 10% FCS

`COC(=O)N[C@H](C(=O)N1CCC[C@H]1c1ncc(-c2ccc(-c3ccc4cc(-c5cnc([C@@H]6CCCN6C(=O)[C@@H](NC(=O)OC)C(C)C)[nH]5)ccc4c3)cc2)[nH]1)C(C)C` [Example 2, Methyl {(2S)-1-[(2S)-2-{5-[6-(4-{2-[(2S)-1-{(2S)-2-[(methoxycarbonyl)amino]-3-methyl-butanoyl}pyrrolidin-2-yl]-1H-imidazol-4-yl}phenyl)naphthalen-2-yl]-1H-imidazol-2-yl}pyrrolidin-1-yl]-3-methyl-1-oxobutan-2-yl}carbamate] showed a fraction unbound at 4 h, 2 µM [1] of 0.001, an IC50 (1a-H77 replicon cells; [3]) of 22.3 pM and an IC50 (1b (con1) replicon cells; [3]) of 2.37 pM.
For `COC(=O)N[C@H](C(=O)N1CCC[C@H]1c1nc(-c2ccc3nc(-c4ccc(-c5cnc([C@@H]6CCCN6C(=O)[C@@H](NC(=O)OC)C(C)C)[nH]5)cc4)ccc3c2)c[nH]1)C(C)C` [Example 3, [(S)-1-((S)-2-{4-[2-(4-{2-[(S)-1-((S)-2-Methoxycarbonylamino-3-methyl-butyryl)-pyrrolidin-2-yl]-3H-imidazol-4-yl}-phenyl)-quinolin-6-yl]-1H-imidazol-2-yl}-pyrrolidine-1-carbonyl)-2-methyl-propyl]-carbamic acid methyl ester], the fraction unbound at 4 h, 2 µM [1] was under 0.0015, the IC50 (1a-H77 replicon cells; [3]) was 74.6 pM and the IC50 (1b (con1) replicon cells; [3]) was 9.31 pM.
`COC(=O)N[C@H](C(=O)N1CCC[C@H]1c1nc(-c2ccc(-c3cnc4cc(-c5cnc([C@@H]6CCCN6C(=O)[C@H](NC(=O)OC)c6ccccc6)[nH]5)ccc4n3)cc2)c[nH]1)C(C)C` [Example 84, Methyl {(2S)-1-[(2S)-2-{4-[4-(6-{2-[(2S)-1-{(2R)-2-[(methoxycarbonyl)amino]-2-phenylacetyl}pyrrolidin-2-yl]-1H-imidazol-5-yl}quinoxalin-2-yl)phenyl]-1H-imidazol-2-yl}pyrrolidin-1-yl]-3-methyl-1-oxobutan-2-yl}carbamate trifluoroacetic acid salt] showed a CC50 at 48 h [2] of over 2000 nM, an IC50 (1a-H77 replicon cells; 48 h) of 19 pM and an IC50 (1b (con1) replicon cells; 48 h) of 10.9 pM.
Work on `COC[C@H](NC(=O)OC)C(=O)N1CCC[C@H]1c1ncc(-c2ccc3nc(-c4ccc(-c5c[nH]c([C@@H]6CCCN6C(=O)[C@@H](NC(=O)OC)C(C)C)n5)cc4)cnc3c2)[nH]1` [Example 69, Methyl {(2S)-1-[(2S)-2-{4-[4-(6-{2-[(2S)-1-{(2S)-3-methoxy-2-[(methoxycarbonyl)amino]propanoyl}pyrrolidin-2-yl]-1H-imidazol-5-yl}quinoxalin-2-yl)phenyl]-1H-imidazol-2-yl}pyrrolidin-1-yl]-3-methyl-1-oxobutan-2-yl}carbamate trifluoroacetic acid salt] yielded a CC50 at 48 h [2] of over 2000 nM, an IC50 (1a-H77 replicon cells; 48 h) of 22.3 pM and an IC50 (1b (con1) replicon cells; 48 h) of 19.6 pM.
`CC[C@H](NC(=O)OC)C(=O)N1CCC[C@H]1c1ncc(-c2ccc3nc(-c4ccc(-c5c[nH]c([C@@H]6CCCN6C(=O)[C@@H](NC(=O)OC)C(C)C)n5)cc4)cnc3c2)[nH]1` [Example 52, Methyl {(2S)-1-[(2S)-2-{4-[4-(6-{2-[(2S)-1-{(2S)-2-[(methoxycarbonyl)amino]butanoyl}pyrrolidin-2-yl]-1H-imidazol-5-yl}quinoxalin-2-yl)phenyl]-1H-imidazol-2-yl}pyrrolidin-1-yl]-3-methyl-1-oxobutan-2-yl}carbamate trifluoroacetic acid salt] gave a CC50 at 48 h [2] of over 2000 nM, an IC50 (1a-H77 replicon cells; 48 h) of 22.1 pM and an IC50 (1b (con1) replicon cells; 48 h) of 16.6 pM.
Work on `CC[C@H](NC(=O)OC)C(=O)N1CCC[C@H]1c1nc(-c2ccc(-c3cnc4cc(-c5cnc([C@@H]6CCCN6C(=O)[C@H](CC)NC(=O)OC)[nH]5)cnc4c3)cc2)c[nH]1` [Example 12, Methyl {(2S)-1-[(2S)-2-{4-[4-(7-{2-[(2S)-1-{(2S)-2-[(methoxycarbonyl)amino]butanoyl}pyrrolidin-2-yl]-1H-imidazol-5-yl}-1,5-naphthyridin-3-yl)phenyl]-1H-imidazol-2-yl}pyrrolidin-1-yl]-1-oxobutan-2-yl}carbamate] yielded a CC50 at 48 h [2] of over 2000 nM, an IC50 (1a-H77 replicon cells; [3]) of 3100 pM and an IC50 (1b (con1) replicon cells; [3]) of 358 pM.
`COC(=O)N[C@H](C(=O)N1CCC[C@H]1c1nc(-c2ccc(-c3cnc4cc(-c5cnc([C@@H]6CCCN6C(=O)[C@@H](NC(=O)OC)C(C)(C)C)[nH]5)ccc4n3)cc2)c[nH]1)C(C)C` [Example 70, Methyl {(2S)-1-[(2S)-2-{4-[4-(6-{2-[(2S)-1-{(2S)-2-[(methoxycarbonyl)amino]-3,3-dimethylbutanoyl}pyrrolidin-2-yl]-1H-imidazol-5-yl}quinoxalin-2-yl)phenyl]-1H-imidazol-2-yl}pyrrolidin-1-yl]-3-methyl-1-oxobutan-2-yl}carbamate trifluoroacetic acid salt] showed a CC50 at 48 h [2] of over 2000 nM, an IC50 (1a-H77 replicon cells; 48 h) of 9.13 pM and an IC50 (1b (con1) replicon cells; 48 h) of 5.17 pM.
In the case of `COC(=O)N[C@@H](CCc1ccccc1)C(=O)N1CCC[C@H]1c1ncc(-c2ccc3nc(-c4ccc(-c5c[nH]c([C@@H]6CCCN6C(=O)[C@@H](NC(=O)OC)C(C)C)n5)cc4)cnc3c2)[nH]1` [Example 79, Methyl {(2S)-1-[(2S)-2-{5-[2-(4-{2-[(2S)-1-{(2S)-2-[(methoxycarbonyl)amino]-3-methylbutanoyl}pyrrolidin-2-yl]-1H-imidazol-4-yl}phenyl)quinoxalin-6-yl]-1H-imidazol-2-yl]pyrrolidin-1-yl]-1-oxo-4-phenylbutan-2-yl}carbamate trifluoroacetic acid salt], the CC50 at 48 h [2] is reported as over 2000 nM, the IC50 (1a-H77 replicon cells; 48 h) is reported as 47.6 pM and the IC50 (1b (con1) replicon cells; 48 h) is reported as 11.7 pM.
`COC(=O)N[C@H](C(=O)N1CCC[C@H]1c1ncc(-c2ccc(-c3ncc4cc(-c5cnc([C@@H]6CCCN6C(=O)[C@@H](NC(=O)OC)C(C)C)[nH]5)ccc4n3)cc2)[nH]1)C(C)C` [Example 1] showed a fraction unbound at 4 h, 2 µM [1] of 0.0015, a CC50 at 48 h [2] of over 2000 nM and an IC50 (1a-H77 replicon cells; [3]) of 36 pM. The IC50 (1b (con1) replicon cells; [3]) was 5.89 pM.
`CC[C@H](C)[C@H](NC(=O)OC)C(=O)N1CCC[C@H]1c1ncc(-c2ccc3nc(-c4ccc(-c5c[nH]c([C@@H]6CCCN6C(=O)[C@@H](NC(=O)OC)C(C)C)n5)cc4)cnc3c2)[nH]1` [Example 58, Methyl {(2S)-1-[(2S)-2-{4-[4-(6-{2-[(2S)-1-{(2S,3S)-2-[(methoxycarbonyl)amino]-3-methylpentanoyl}pyrrolidin-2-yl]-1H-imidazol-5-yl}quinoxalin-2-yl)phenyl]-1H-imidazol-2-yl}pyrrolidin-1-yl]-3-methyl-1-oxobutan-2-yl}carbamate trifluoroacetic acid salt] showed a CC50 at 48 h [2] of over 2000 nM, an IC50 (1a-H77 replicon cells; 48 h) of 6.71 pM and an IC50 (1b (con1) replicon cells; 48 h) of 5.07 pM.
